Values of other authors in US20140100537A1 (MEDICURE INTERNATIONAL INC., priority 2009, published 2014).

Test system: platelet aggregation
Conditions: typical dosage for tirofiban

CCCCS(=O)(=O)NC(Cc1ccc(OCCCCC2CCNCC2)cc1)C(=O)O.Cl (stereo not shown) [tirofiban]
platelet inhibition provided by typical dosage: > 90%
